US20020035061A1, “COMPOSITIONS AND METHODS FOR TREATING INFECTIONS USING CATIONIC PEPTIDES ALONE OR IN COMBINATION WITH ANTIBIOTICS” (priority 1996, published 2002)
≈ marks a conversion by molar mass, not a printed value. Where “and” joins values, the source holds several entries; their conditions need not be identical. Equal values may be shown once. Read-outs that look alike come from different tables or passages of the source.

How the values were obtained:
Test in all cases: microbe, parasite or virus in culture
Format in all cases: cell-based
bacterial isolates = test system: bacterial isolates
[1] = test system: inherently resistant microorganisms
[2] = test system: microorganisms with acquired resistance; conditions: for MIC comb. (antibiotic agent): with MBI 29
[3] = Acinetobacter baumannii, read-out: Tobramycin MIC Alone, A. baumannii ABI001
[4] = Acinetobacter baumannii, read-out: Tobramycin MIC Alone, A. baumannii ABI002
[5] = Pseudomonas aeruginosa, read-out: Tobramycin MIC Alone, P. aeruginosa PA008
[6] = Pseudomonas aeruginosa, read-out: Tobramycin MIC Alone, P. aeruginosa PA022
[7] = Pseudomonas aeruginosa, read-out: Tobramycin MIC Alone, P. aeruginosa PA025
[8] = Pseudomonas aeruginosa, read-out: Tobramycin MIC Alone, P. aeruginosa PA026
[9] = Pseudomonas aeruginosa, read-out: Tobramycin MIC Alone, P. aeruginosa PA030
[10] = Pseudomonas aeruginosa, read-out: Tobramycin MIC Alone, P. aeruginosa PA032
[11] = Staphylococcus epidermidis, read-out: Tobramycin MIC Alone, S. epidermidis SE068
[12] = Staphylococcus epidermidis, read-out: Tobramycin MIC Alone, S. epidermidis SE072
[13] = Staphylococcus epidermidis, read-out: Tobramycin MIC Alone, S. epidermidis SE073
[14] = Staphylococcus epidermidis, read-out: Tobramycin MIC Alone, S. epidermidis SE080
[15] = Stenotrophomonas maltophilia, read-out: Tobramycin MIC Alone, S. maltophilia SMA029
[16] = Stenotrophomonas maltophilia, read-out: Tobramycin MIC Alone, S. maltophilia SMA030
[17] = Stenotrophomonas maltophilia, read-out: Tobramycin MIC Alone, S. maltophilia SMA031
[18] = Stenotrophomonas maltophilia, read-out: Tobramycin MIC Alone, S. maltophilia SMA032

NC[C@H]1O[C@H](O[C@H]2[C@H](O)[C@@H](O[C@H]3O[C@H](CO)[C@@H](O)[C@H](N)[C@H]3O)[C@H](N)C[C@@H]2N)[C@H](N)C[C@@H]1O [Tobramycin]
Tobramycin MIC Alone (bacterial isolates; A. baumannii ABI002): 4 µg/mL
MIC (bacterial isolates; [3]): 16 µg/mL (≈ 34.2 µM)
MIC (bacterial isolates; [4]): 8 µg/mL (≈ 17.1 µM)
MIC (bacterial isolates; Burkholderia cepacia, read-out: Tobramycin MIC Alone, B. cepacia BC001): 128 µg/mL (≈ 274 µM)
MIC (bacterial isolates; Burkholderia cepacia, read-out: Tobramycin MIC Alone, B. cepacia BC002): > 128 µg/mL
MIC (bacterial isolates; Escherichia coli, read-out: Tobramycin MIC Alone, E. coli ECO004): 2 µg/mL (≈ 4.28 µM)
MIC (bacterial isolates; Escherichia coli, read-out: Tobramycin MIC Alone, E. coli ECO006): 8 µg/mL (≈ 17.1 µM)
MIC (bacterial isolates; Klebsiella pneumoniae, read-out: Tobramycin MIC Alone, K. pneumoniae KP008): 0.5 µg/mL (≈ 1.07 µM)
MIC (bacterial isolates; [5]): 32 µg/mL (≈ 68.4 µM)
MIC (bacterial isolates; [6]): 8 µg/mL (≈ 17.1 µM)
MIC (bacterial isolates; [7]): 32 µg/mL (≈ 68.4 µM)
MIC (bacterial isolates; [8]): 8 µg/mL (≈ 17.1 µM)
MIC (bacterial isolates; Pseudomonas aeruginosa, read-out: Tobramycin MIC Alone, P. aeruginosa PA028): 32 µg/mL (≈ 68.4 µM)
MIC (bacterial isolates; Pseudomonas aeruginosa, read-out: Tobramycin MIC Alone, P. aeruginosa PA029): 32 µg/mL (≈ 68.4 µM)
MIC (bacterial isolates; [9]): 16 µg/mL (≈ 34.2 µM)
MIC (bacterial isolates; [10]): 16 µg/mL (≈ 34.2 µM)
Tobramycin MIC Alone (bacterial isolates; S. haemolyticus SHA005): 4 µg/mL
Tobramycin MIC Alone (bacterial isolates; S. maltophilia SMA031): >128 µg/mL
MIC (bacterial isolates; Staphylococcus aureus, MRSA, read-out: Tobramycin MIC Alone, S. aureus SA014 (also SA014 MRSA)): > 128 µg/mL
MIC (bacterial isolates; Staphylococcus aureus, MRSA, read-out: Tobramycin MIC Alone, S. aureus SA014 MRSA): > 128 µg/mL
MIC (bacterial isolates; Staphylococcus aureus, MRSA, read-out: Tobramycin MIC Alone, S. aureus SA018 MRSA): 64 µg/mL (≈ 137 µM)
MIC (bacterial isolates; Staphylococcus aureus, MRSA, read-out: Tobramycin MIC Alone, S. aureus SA025 (also SA025 MRSA)): > 128 µg/mL
MIC (bacterial isolates; Staphylococcus epidermidis, read-out: Tobramycin MIC Alone, S. epidermidis SE067): > 128 µg/mL
MIC (bacterial isolates; [11]): > 128 µg/mL
MIC (bacterial isolates; [12]): > 128 µg/mL
MIC (bacterial isolates; [13]): > 128 µg/mL
MIC (bacterial isolates; [14]): 32 µg/mL (≈ 68.4 µM)
MIC (bacterial isolates; Staphylococcus haemolyticus, read-out: Tobramycin MIC Alone, S. haemolyticus SHA001): 4 µg/mL (≈ 8.56 µM)
MIC (bacterial isolates; Staphylococcus haemolyticus, read-out: Tobramycin MIC Alone, S. haemolyticus SHA005): 8 µg/mL (≈ 17.1 µM)
MIC (bacterial isolates; Stenotrophomonas maltophilia, read-out: Tobramycin MIC Alone, S. maltophilia (strain code stands in r800, not shown)): 128 µg/mL (≈ 274 µM)
MIC (bacterial isolates; Stenotrophomonas maltophilia, read-out: Tobramycin MIC Alone, S. maltophilia SMA027): 32 µg/mL (≈ 68.4 µM)
MIC (bacterial isolates; [15]): 128 µg/mL (≈ 274 µM)
MIC (bacterial isolates; [16]): 128 µg/mL (≈ 274 µM)
MIC (bacterial isolates; [17]): 128 µg/mL (≈ 274 µM)
MIC (bacterial isolates; [18]): 128 µg/mL (≈ 274 µM)
MIC (bacterial isolates; Stenotrophomonas maltophilia, read-out: Tobramycin MIC Alone, S. maltophilia SMA035): 32 µg/mL (≈ 68.4 µM)
MIC ([1]; Staphylococcus aureus, read-out: Tobramycin MIC + Peptide, S. aureus, peptide MBI 11A1CN): 0.125 µg/mL
MIC ([1]; Staphylococcus aureus, read-out: Tobramycin MIC + Peptide, S. aureus, peptide MBI 11D18CN): 4 µg/mL
MIC ([1]; Staphylococcus aureus, read-out: Tobramycin MIC + Peptide, S. aureus, peptide MBI 11F3CN): 2 µg/mL
MIC ([1]; Staphylococcus aureus, read-out: Tobramycin MIC + Peptide, S. aureus, peptide MBI 11G13CN): 0.125 µg/mL
MIC ([1]; Staphylococcus aureus, read-out: Tobramycin MIC + Peptide, S. aureus, peptide MBI 21A1): 0.125 µg/mL
MIC ([1]; Staphylococcus aureus, read-out: Tobramycin MIC + Peptide, S. aureus, peptide MBI 22A1): 4 µg/mL
MIC ([1]; Staphylococcus aureus, read-out: Tobramycin MIC Alone, S. aureus): > 128 µg/mL
MIC ([1]; Staphylococcus haemolyticus, read-out: Tobramycin MIC + Peptide, S. haemolyticus, peptide MBI 11A1CN): 4 µg/mL
MIC ([1]; Staphylococcus haemolyticus, read-out: Tobramycin MIC Alone, S. haemolyticus): 8 µg/mL (≈ 17.1 µM)
MIC comb. (antibiotic agent) ([2]; A. calcoaceticus): 1 µg/mL (≈ 2.14 µM)
MIC [2, 3]: 16 µg/mL (≈ 34.2 µM)
MIC [2, 4]: 8 µg/mL (≈ 17.1 µM)
MIC ([2]; Acinetobacter calcoaceticus, read-out: MIC alone (antibiotic agent), A. calcoaceticus): 8 µg/mL (≈ 17.1 µM)
MIC ([2]; Escherichia coli, read-out: Tobramycin MIC Alone, E. coli EC0006): 8 µg/mL (≈ 17.1 µM)
Tobramycin MIC Alone ([2]; P. aeruginosa PA032): 8 µg/mL
MIC comb. (antibiotic agent) ([2]; P. aeruginosa): 1 µg/mL (≈ 2.14 µM)
MIC ([2]; Pseudomonas aeruginosa, read-out: MIC alone (antibiotic agent), P. aeruginosa): 64 µg/mL (≈ 137 µM)
MIC [2, 5]: 32 µg/mL (≈ 68.4 µM)
MIC [2, 6]: 8 µg/mL (≈ 17.1 µM)
MIC [2, 7]: 32 µg/mL (≈ 68.4 µM)
MIC [2, 8]: 8 µg/mL (≈ 17.1 µM)
MIC [2, 9]: 16 µg/mL (≈ 34.2 µM)
MIC ([2]; Pseudomonas aeruginosa, read-out: Tobramycin MIC Alone, P. aeruginosa PA031): 16 µg/mL (≈ 34.2 µM)
MIC [2, 10]: 16 µg/mL (≈ 34.2 µM)
Tobramycin MIC Alone ([2]; S. maltophilia SMA031): 128 µg/mL and >128 µg/mL
MIC [2, 11]: > 128 µg/mL
MIC ([2]; Staphylococcus epidermidis, read-out: Tobramycin MIC Alone, S. epidermidis SE071): > 128 µg/mL
MIC [2, 12]: > 128 µg/mL
MIC [2, 13]: > 128 µg/mL
MIC [2, 14]: 16 µg/mL (≈ 34.2 µM)
MIC [2, 15]: 128 µg/mL (≈ 274 µM)
MIC [2, 16]: 128 µg/mL (≈ 274 µM)
MIC [2, 17]: 64 µg/mL (≈ 137 µM)
MIC [2, 18]: 128 µg/mL (≈ 274 µM)
